ChEMBL document CHEMBL4152261, “Positional scanning library applied to the human eosinophil cationic protein/RNase3 N-terminus reveals novel and potent anti-biofilm peptides” (Eur J Med Chem, 2018)

Columns and labels:
[1] = Selectivity index, ratio of IC50 for human MRC5 cells to ED50 for induction of biofilm eradication of Pseudomonas aeruginosa PAO1; type: toxicity
Lipopolysaccharide (LPS) [2] = assay: Displacement of BODIPY TR cadaverine from Pseudomonas aeruginosa LPS by fluorescence assay
MRC5 = assay: Cytotoxicity against human MRC5 cells after 4 hrs by MTT assay; type: cell-based; details: MRC5, 4 h
Pseudomonas aeruginosa [3] = assay: Induction of biofilm eradication of Pseudomonas aeruginosa PAO1 after 4 hrs by BacTiter-Glo assay; type: functional; details: PAO1, 4 h, read-out: ED50 (the source's name)
[4] = Selectivity index, ratio of HC50 for sheep RBC to ED50 for induction of biofilm eradication of Pseudomonas aeruginosa PAO1; type: toxicity; details: sheep red blood cells (erythrocytes)
Pseudomonas aeruginosa [5] = assay: Induction of Pseudomonas aeruginosa PAO1 agglutination after 1 hr by binocular stereo microscopic method; type: functional
HepG2 = assay: Cytotoxicity against human HepG2 cells after 4 hrs by MTT assay; type: cell-based; details: HepG2, 4 h
[6] = Hemolytic activity in sheep RBC after 4 hrs; type: ADME, cell-based, Ovis aries, Erythrocyte; details: sheep red blood cells (erythrocytes)
Pseudomonas aeruginosa [7] = assay: Bactericidal activity against Pseudomonas aeruginosa PAO1 planktonic cells after 4 hrs by BacTiter-Glo assay; type: functional; details: PAO1, 4 h, read-out: ED50 (the source's name)
Lipopolysaccharide (LPS) [8] = assay: Displacement of BODIPY TR cadaverine from Pseudomonas aeruginosa LPS at 1 uM by fluorescence assay relative to control
Pseudomonas aeruginosa [9] = assay: Bactericidal activity against Pseudomonas aeruginosa PAO1 planktonic cells at 1 uM after 4 hrs by BacTiter-Glo assay relative to control; type: functional
[10] = Hemolytic activity in sheep RBC at 10 uM after 4 hrs relative to control; type: ADME, cell-based, Ovis aries, Erythrocyte; details: sheep red blood cells (erythrocytes), read-out: Activity

| ED50 (Lipopolysaccharide (LPS) [2]) | inhibition (Lipopolysaccharide (LPS) [8]) | Molecule | selectivity ratio [1] | IC50 (MRC5) | EC50 (Pseudomonas aeruginosa [3]) | selectivity ratio [4] | MAC (Pseudomonas aeruginosa [5]) | IC50 (HepG2) | HC50 at 4 h [6] | EC50 (Pseudomonas aeruginosa [7]) | Activity (Pseudomonas aeruginosa [9]) | hemolysis at 4 h, 10 µM [10] |
| --- | --- | --- | --- | --- | --- | --- | --- | --- | --- | --- | --- | --- |
| 3.07 µM |  | H-RPFTRAQIFAIQHISPRTIAMRAINNYRWR-OH | 16 to 60 | > 150 µM | 4.37 µM | 16 to 60 | 0.125 µM | 172 µM | > 150 µM | 0.25 µM |  |  |
| 1.66 µM |  | CC[C@H](C)[C@H](NC(=O)[C@H](C)NC(=O)[C@H](CCCNC(=N)N)NC(=O)[C@H](CCSC)NC(=O)[C@H](C)NC(=O)[C@@H](NC(=O)[C@@H](NC(=O)[C@H](CCCNC(=N)N)NC(=O)[C@@H]1CCCN1C(=O)[C@H](CO)NC(=O)[C@@H](NC(=O)[C@H](Cc1cnc[nH]1)NC(=O)[C@@H](NC(=O)[C@@H](NC(=O)[C@H](C)NC(=O)[C@H](Cc1ccccc1)NC(=O)[C@H](Cc1c[nH]c2ccccc12)NC(=O)[C@H](CCC(N)=O)NC(=O)[C@H](C)NC(=O)[C@H](CCCNC(=N)N)NC(=O)[C@@H](NC(=O)[C@H](Cc1ccccc1)NC(=O)[C@@H]1CCCN1C(=O)[C@@H](N)CCCNC(=N)N)[C@H](C)O)[C@@H](C)CC)[C@@H](C)CC)[C@@H](C)CC)[C@@H](C)O)[C@@H](C)CC)C(=O)N[C@@H](CC(N)=O)C(=O)N[C@@H](CC(N)=O)C(=O)N[C@@H](Cc1ccc(O)cc1)C(=O)N[C@@H](CCCNC(=N)N)C(=O)N[C@@H](Cc1c[nH]c2ccccc12)C(=O)N[C@@H](CCCNC(=N)N)C(=O)O | 16 to 60 | > 100 µM | 3.19 µM | 16 to 60 | 0.25 µM | 59.6 µM | > 100 µM | 0.44 µM |  |  |
| 3.42 µM |  | H-RPFIRAQWFAIQHISPRTIAMRAINNYRWR-OH | 16 to 60 | > 150 µM | 2.37 µM | 16 to 60 | 0.25 µM | 95.8 µM | > 150 µM | 0.55 µM |  |  |
| 2.85 µM | 40% | CC[C@H](C)[C@H](NC(=O)[C@H](C)NC(=O)[C@H](CCCNC(=N)N)NC(=O)[C@H](CCSC)NC(=O)[C@H](C)NC(=O)[C@@H](NC(=O)[C@@H](NC(=O)[C@H](CCCNC(=N)N)NC(=O)[C@@H]1CCCN1C(=O)[C@H](CO)NC(=O)[C@@H](NC(=O)[C@H](Cc1cnc[nH]1)NC(=O)[C@H](CCC(N)=O)NC(=O)[C@@H](NC(=O)[C@H](C)NC(=O)[C@H](Cc1ccccc1)NC(=O)[C@H](Cc1c[nH]c2ccccc12)NC(=O)[C@H](CCC(N)=O)NC(=O)[C@H](C)NC(=O)[C@H](CCCNC(=N)N)NC(=O)[C@@H](NC(=O)[C@H](Cc1ccccc1)NC(=O)[C@@H]1CCCN1C(=O)[C@@H](N)CCCNC(=N)N)[C@@H](C)O)[C@@H](C)CC)[C@@H](C)CC)[C@H](C)O)[C@@H](C)CC)C(=O)N[C@@H](CC(N)=O)C(=O)N[C@@H](CC(N)=O)C(=O)N[C@@H](Cc1ccc(O)cc1)C(=O)N[C@@H](CCCNC(=N)N)C(=O)N[C@@H](Cc1c[nH]c2ccccc12)C(=O)N[C@@H](CCCNC(=N)N)C(=O)O | 16 to 60 | > 150 µM | 6.62 µM | 16 to 60 | 1 µM | 74.4 µM | > 150 µM | 1.34 µM | 50% | 10% |
